# Measured values as given in ChEMBL document CHEMBL5653615 (J Biol Chem, 2013).
# Activity calls are given as the source filed them. The calls are words filed in the database; no cut-off is given here.
# Experiments:
# [1] = molecular target: Serine/threonine-protein kinase 26 (Homo sapiens) (UniProt Q9P289); experiment: Inhibition of human MST4 at 500 nM by HotSpot assay relative to control
# [2] = molecular target: LIM domain kinase 1 (Homo sapiens) (UniProt P53667); experiment: Inhibition of human LIMK1 at 500 nM by HotSpot assay relative to control
# LIM domain kinase 1 (Homo sapiens), sequence (P53667 whole entry, looked up, the tested form may be a part): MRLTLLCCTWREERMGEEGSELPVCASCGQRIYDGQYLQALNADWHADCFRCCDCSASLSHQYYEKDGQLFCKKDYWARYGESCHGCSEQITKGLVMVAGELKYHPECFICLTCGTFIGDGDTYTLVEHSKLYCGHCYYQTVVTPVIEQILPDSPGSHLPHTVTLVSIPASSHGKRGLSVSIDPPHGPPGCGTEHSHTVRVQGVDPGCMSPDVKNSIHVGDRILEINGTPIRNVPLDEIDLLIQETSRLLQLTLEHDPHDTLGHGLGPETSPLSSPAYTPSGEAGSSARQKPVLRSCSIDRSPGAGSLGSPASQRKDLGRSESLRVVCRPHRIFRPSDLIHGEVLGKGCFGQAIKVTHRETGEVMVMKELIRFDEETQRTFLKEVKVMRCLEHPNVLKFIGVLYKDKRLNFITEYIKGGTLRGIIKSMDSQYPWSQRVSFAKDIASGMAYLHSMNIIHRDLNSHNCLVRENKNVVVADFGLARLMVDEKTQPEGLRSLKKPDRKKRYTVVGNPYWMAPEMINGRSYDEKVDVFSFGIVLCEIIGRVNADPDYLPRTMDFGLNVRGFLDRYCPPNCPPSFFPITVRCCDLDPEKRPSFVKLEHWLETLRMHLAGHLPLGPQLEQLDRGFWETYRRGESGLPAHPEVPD
# [3] = molecular target: T1, Serine/threonine-protein kinase Chk1 (Homo sapiens) (UniProt O14757); experiment: Inhibition of human CHK1 at 500 nM by HotSpot assay relative to control
# T1 sequence (whole entry): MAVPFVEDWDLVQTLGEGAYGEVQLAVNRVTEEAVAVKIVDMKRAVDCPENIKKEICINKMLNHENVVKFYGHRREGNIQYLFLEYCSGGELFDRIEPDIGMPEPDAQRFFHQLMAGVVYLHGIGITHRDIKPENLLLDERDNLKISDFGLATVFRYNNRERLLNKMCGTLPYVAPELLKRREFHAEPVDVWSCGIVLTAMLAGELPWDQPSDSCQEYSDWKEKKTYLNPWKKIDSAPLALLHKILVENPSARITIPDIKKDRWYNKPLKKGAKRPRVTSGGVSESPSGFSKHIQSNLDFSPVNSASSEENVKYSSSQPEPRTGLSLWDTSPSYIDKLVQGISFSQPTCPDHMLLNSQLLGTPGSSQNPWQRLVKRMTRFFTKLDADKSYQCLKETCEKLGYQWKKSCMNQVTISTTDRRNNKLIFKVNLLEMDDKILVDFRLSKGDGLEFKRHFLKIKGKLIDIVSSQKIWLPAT
# [4] = molecular target: CDK9/Cyclin K (Homo sapiens) (UniProt P50750+O75909); experiment: Inhibition of human CDK9/cyclin K at 500 nM by HotSpot assay relative to control; type: protein-complex assay
# [5] = molecular target: MAP kinase-interacting serine/threonine-protein kinase 2 (Homo sapiens) (UniProt Q9HBH9); experiment: Inhibition of human MNK2 at 500 nM by HotSpot assay relative to control
# MAP kinase-interacting serine/threonine-protein kinase 2 (Homo sapiens), sequence (Q9HBH9 whole entry, looked up): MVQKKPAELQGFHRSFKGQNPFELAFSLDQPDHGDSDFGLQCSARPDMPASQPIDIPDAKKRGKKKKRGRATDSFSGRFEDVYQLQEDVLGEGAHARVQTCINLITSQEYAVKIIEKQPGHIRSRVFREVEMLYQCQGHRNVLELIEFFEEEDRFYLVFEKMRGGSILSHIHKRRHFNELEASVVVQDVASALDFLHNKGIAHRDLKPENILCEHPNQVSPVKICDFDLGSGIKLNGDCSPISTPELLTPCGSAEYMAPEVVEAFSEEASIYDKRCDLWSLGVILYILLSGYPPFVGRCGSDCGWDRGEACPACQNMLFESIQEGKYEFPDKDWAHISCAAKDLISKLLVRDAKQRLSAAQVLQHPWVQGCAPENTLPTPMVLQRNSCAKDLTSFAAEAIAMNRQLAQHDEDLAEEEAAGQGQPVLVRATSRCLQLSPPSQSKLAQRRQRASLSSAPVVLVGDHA
# [6] = molecular target: Cyclin-dependent kinase 1/cyclin B1 (Homo sapiens) (UniProt P06493+P14635); experiment: Inhibition of human CDK1/cyclin B at 500 nM by HotSpot assay relative to control; type: protein-complex assay
# Cyclin-dependent kinase 1/cyclin B1 (Homo sapiens), sequence (P06493 whole entry, looked up): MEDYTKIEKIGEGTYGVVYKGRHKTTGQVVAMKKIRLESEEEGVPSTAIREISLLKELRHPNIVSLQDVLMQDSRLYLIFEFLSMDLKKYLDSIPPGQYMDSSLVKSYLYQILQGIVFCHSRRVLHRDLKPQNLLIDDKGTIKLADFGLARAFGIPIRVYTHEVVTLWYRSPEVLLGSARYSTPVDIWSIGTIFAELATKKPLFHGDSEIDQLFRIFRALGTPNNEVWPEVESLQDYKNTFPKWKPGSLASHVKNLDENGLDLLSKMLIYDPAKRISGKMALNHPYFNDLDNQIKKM
# Cyclin-dependent kinase 1/cyclin B1 (Homo sapiens), sequence (P14635 whole entry, looked up): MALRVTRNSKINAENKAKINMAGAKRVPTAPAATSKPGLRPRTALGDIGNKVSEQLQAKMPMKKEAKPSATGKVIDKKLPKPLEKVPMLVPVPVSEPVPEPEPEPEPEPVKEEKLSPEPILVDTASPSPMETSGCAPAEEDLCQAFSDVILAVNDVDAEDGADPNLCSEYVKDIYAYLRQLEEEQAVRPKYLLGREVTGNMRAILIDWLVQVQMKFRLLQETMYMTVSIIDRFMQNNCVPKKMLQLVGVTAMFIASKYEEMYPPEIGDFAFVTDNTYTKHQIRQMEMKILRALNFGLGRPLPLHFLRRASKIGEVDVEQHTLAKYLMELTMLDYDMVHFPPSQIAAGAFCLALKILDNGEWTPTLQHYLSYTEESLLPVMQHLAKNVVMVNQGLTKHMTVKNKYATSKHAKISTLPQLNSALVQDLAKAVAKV
# [7] = molecular target: T2, Serine/threonine-protein kinase DCLK2 (Homo sapiens) (UniProt Q8N568); experiment: Inhibition of human DCAMKL2 at 500 nM by HotSpot assay relative to control
# T2 sequence (whole entry): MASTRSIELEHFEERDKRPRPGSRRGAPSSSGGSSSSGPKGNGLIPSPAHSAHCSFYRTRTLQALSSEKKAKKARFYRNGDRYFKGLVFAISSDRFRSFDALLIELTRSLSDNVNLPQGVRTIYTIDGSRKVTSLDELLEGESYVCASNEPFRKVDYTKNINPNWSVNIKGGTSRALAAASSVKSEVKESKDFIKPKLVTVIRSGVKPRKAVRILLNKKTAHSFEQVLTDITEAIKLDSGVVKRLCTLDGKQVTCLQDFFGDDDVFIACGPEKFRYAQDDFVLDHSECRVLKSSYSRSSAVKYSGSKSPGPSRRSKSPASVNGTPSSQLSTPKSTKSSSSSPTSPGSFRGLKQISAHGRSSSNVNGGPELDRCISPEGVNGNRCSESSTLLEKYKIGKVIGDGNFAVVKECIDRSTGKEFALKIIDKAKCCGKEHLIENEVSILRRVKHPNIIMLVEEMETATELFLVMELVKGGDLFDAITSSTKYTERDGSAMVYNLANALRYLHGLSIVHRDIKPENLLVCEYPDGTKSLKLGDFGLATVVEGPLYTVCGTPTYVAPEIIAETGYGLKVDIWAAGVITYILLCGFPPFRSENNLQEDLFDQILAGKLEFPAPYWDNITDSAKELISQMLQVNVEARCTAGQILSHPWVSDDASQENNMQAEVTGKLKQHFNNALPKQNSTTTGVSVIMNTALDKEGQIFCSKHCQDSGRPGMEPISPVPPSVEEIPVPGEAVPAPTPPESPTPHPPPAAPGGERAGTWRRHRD
# [8] = molecular target: Tyrosine-protein kinase ABL2 (Homo sapiens) (UniProt P42684); experiment: Inhibition of human ABL2 at 500 nM by HotSpot assay relative to control
# [9] = molecular target: CDK6/cyclin D3 (Homo sapiens) (UniProt P30281+Q00534); experiment: Inhibition of human CDK6/cyclin D3 at 500 nM by HotSpot assay relative to control; type: protein-complex assay
# [10] = Inhibition of mono-phosphorylated human Insulin receptor (978 to 1283 residues) C981S mutant kinase domain expressed in baculovirus infected Sf9 cells incubated for 1 hr by [gamma-33P]ATP assay
# [11] = molecular target: Serine/threonine-protein kinase Chk2 (Homo sapiens) (UniProt O96017); experiment: Inhibition of human CHK2 at 500 nM by HotSpot assay relative to control
# [12] = molecular target: T3, Serine/threonine-protein kinase Sgk1 (Homo sapiens) (UniProt O00141); experiment: Inhibition of human SGK1 at 500 nM by HotSpot assay relative to control
# T3 sequence (whole entry): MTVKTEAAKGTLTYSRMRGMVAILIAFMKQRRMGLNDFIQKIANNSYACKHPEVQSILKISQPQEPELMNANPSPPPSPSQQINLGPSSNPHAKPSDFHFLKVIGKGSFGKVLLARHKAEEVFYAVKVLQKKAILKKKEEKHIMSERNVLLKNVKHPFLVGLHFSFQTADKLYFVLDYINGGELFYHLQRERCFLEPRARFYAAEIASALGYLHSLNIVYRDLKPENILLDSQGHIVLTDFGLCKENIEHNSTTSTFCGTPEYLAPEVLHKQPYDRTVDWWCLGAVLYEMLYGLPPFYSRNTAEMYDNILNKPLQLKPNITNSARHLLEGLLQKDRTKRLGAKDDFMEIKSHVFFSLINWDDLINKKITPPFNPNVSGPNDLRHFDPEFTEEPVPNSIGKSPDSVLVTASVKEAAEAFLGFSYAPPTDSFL
# [13] = molecular target: Serine/threonine-protein kinase PAK 3 (Homo sapiens) (UniProt O75914); experiment: Inhibition of human PAK3 at 500 nM by HotSpot assay relative to control
# Serine/threonine-protein kinase PAK 3 (Homo sapiens), sequence (O75914 whole entry, looked up): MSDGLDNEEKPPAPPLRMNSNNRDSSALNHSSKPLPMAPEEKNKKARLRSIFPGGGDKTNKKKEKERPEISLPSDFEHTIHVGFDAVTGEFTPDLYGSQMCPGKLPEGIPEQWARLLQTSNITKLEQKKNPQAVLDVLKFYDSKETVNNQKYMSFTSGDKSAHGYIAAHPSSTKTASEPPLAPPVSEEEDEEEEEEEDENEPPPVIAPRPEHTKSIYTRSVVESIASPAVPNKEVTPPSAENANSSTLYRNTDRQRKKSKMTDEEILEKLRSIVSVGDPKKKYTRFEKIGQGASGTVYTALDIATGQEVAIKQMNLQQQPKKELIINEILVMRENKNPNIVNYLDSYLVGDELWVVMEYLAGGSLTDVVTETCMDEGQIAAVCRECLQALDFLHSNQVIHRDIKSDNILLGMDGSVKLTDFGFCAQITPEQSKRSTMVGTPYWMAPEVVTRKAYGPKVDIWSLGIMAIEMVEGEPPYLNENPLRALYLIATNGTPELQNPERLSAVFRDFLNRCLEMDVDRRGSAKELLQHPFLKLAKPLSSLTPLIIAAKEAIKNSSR
# [14] = molecular target: Ephrin type-B receptor 4 (Homo sapiens) (UniProt P54760); experiment: Inhibition of human EPHB4 at 500 nM by HotSpot assay relative to control
# [15] = molecular target: Vascular endothelial growth factor receptor 3 (Homo sapiens) (UniProt P35916); experiment: Inhibition of human FLT4 at 500 nM by HotSpot assay relative to control
# [16] = molecular target: Serine/threonine-protein kinase MARK1 (Homo sapiens) (UniProt Q9P0L2); experiment: Inhibition of human MARK1 at 500 nM by HotSpot assay relative to control
# Serine/threonine-protein kinase MARK1 (Homo sapiens), sequence (Q9P0L2 whole entry, looked up): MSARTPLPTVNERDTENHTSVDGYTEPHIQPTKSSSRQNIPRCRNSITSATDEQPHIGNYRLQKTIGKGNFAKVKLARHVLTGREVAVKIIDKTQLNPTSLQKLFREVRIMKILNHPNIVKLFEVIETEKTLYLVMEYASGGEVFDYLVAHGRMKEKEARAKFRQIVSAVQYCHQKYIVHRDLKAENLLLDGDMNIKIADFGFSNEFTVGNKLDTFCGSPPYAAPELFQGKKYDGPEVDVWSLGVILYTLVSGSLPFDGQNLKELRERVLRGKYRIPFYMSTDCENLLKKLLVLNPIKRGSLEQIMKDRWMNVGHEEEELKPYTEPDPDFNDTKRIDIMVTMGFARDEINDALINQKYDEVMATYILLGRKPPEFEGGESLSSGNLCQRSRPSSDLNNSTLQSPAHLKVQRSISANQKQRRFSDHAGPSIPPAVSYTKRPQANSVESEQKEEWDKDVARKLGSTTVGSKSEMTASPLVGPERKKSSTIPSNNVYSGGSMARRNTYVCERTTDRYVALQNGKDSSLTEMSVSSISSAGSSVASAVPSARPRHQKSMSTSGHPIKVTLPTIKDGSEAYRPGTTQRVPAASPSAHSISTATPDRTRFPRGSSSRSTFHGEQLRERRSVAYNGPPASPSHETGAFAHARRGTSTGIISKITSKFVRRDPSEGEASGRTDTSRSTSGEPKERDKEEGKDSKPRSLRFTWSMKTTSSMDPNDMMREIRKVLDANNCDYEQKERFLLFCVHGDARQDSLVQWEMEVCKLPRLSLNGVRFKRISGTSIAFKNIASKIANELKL
# [17] = molecular target: Calcium/calmodulin-dependent protein kinase type 1G (Homo sapiens) (UniProt Q96NX5); experiment: Inhibition of human CAMK1g at 500 nM by HotSpot assay relative to control
# [18] = molecular target: Ephrin type-A receptor 4 (Homo sapiens) (UniProt P54764); experiment: Inhibition of human EPHA4 at 500 nM by HotSpot assay relative to control
# Ephrin type-A receptor 4 (Homo sapiens), sequence (P54764 whole entry): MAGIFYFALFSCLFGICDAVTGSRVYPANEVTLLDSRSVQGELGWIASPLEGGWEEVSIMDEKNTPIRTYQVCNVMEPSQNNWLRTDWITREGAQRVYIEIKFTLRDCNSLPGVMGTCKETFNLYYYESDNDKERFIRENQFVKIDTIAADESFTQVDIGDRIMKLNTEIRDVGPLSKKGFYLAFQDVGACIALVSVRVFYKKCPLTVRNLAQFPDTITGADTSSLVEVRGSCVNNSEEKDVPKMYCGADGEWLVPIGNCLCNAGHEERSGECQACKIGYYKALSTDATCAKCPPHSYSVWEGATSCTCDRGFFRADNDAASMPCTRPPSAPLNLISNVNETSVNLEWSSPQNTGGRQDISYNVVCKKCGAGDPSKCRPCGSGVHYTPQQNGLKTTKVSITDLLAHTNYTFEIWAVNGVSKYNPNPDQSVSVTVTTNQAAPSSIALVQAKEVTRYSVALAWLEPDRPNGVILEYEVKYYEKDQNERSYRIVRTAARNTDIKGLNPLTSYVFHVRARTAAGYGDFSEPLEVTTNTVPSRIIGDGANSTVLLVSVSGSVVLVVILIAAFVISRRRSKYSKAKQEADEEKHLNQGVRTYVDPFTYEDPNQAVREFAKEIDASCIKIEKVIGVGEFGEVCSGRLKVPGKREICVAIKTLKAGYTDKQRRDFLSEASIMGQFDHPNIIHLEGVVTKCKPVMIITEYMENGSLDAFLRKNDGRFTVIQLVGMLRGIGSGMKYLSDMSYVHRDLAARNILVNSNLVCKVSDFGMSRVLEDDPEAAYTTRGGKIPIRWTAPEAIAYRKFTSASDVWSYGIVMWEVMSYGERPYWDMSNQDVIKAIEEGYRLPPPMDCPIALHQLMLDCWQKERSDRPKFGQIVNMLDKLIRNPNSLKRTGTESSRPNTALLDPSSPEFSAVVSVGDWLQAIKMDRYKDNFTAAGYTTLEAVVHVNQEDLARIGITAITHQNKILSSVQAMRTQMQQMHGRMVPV
# Serine/threonine-protein kinase 26 (Homo sapiens), sequence (Q9P289 2-416 limits assumed): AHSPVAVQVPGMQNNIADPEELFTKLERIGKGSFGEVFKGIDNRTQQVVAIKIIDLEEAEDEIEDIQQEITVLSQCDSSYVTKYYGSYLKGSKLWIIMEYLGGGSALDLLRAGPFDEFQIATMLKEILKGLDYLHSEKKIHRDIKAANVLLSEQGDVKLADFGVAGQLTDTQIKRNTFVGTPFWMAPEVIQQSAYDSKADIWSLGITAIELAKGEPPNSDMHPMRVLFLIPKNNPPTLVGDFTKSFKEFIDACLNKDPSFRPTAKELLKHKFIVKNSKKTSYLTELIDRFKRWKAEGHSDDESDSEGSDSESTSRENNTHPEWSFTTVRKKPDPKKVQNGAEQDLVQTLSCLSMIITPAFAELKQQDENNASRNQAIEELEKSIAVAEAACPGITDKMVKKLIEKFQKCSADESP
SMILES,inhibition [1],inhibition [2],inhibition [3],inhibition [4],inhibition [5],inhibition [6],inhibition [7],inhibition [8],inhibition [9],inhibition [10],inhibition [11],inhibition [12],inhibition [13],inhibition [14],inhibition [15],inhibition [16],inhibition [17],inhibition [18]
Oc1n[nH]c2nnc(-c3c(-c4ccccc4)nn4ccccc34)cc12,3.66%,-1.82%,-1.38%,-4.88%,-6.03%,9.98%,0.11%,3.05%,1.59%,Active,1.86%,-4.65%,0.99%,2.91%,0.44%,4.47%,0.26%,-8.13%
Nc1n[nH]c2nnc(-c3c(-c4ccccc4)nn4ccccc34)cc12,24.1%,1.81%,-3.37%,1.48%,1.7%,9.79%,-0.33%,42.5%,9.56%,Active,2.97%,0.11%,-0.04%,1.54%,10.1%,2.04%,0.77%,14.1%
